Experimental data from patent US7709509B2, “Oxadiazolones and derivatives thereof as peroxisome proliferator-activated receptor (PPAR) delta agonists” (Sanofi-Aventis Deutschland GmbH, priority 2004, dated 2010).
Read-outs that look alike come from different tables or passages of the source.

Columns and labels:
[1] = rhesus and cynomolgus monkeys; cited from earlier work
[2] = two weeks clinical trials in healthy volunteers; cited from earlier work
human PPARalpha = biological target: T1, human PPARalpha (Homo sapiens, UniProt Q07869); assay: Cellular PPARalpha assay (HEK PPARalpha reporter cell line, luciferase); format: cell-based; conditions: GR-GAL4-humanPPARalpha-LBD
T1 construct: human PPARalpha receptor (amino acids S167-Y468); expressed in transfected cells; host or cells: HEK cells, stably transfected (pcDNA3, CMV promoter)
T1 sequence (Q07869 167-468): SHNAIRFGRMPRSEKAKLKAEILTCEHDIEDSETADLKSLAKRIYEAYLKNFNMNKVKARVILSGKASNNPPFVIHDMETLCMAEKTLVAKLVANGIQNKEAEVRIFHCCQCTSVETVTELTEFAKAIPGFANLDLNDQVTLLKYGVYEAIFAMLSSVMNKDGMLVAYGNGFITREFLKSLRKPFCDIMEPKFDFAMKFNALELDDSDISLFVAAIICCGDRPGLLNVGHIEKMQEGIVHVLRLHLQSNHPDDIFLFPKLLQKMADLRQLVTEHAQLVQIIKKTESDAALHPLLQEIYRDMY
Description: Determination of EC50 Values of PPAR Agonists in the Cellular PPARalpha Assay
(§1) The potency of substances which bind to human PPARalpha and activate it in an agonistic manner is analyzed using a stably transfected HEK cell line (HEK=human embryo kidney) which is referred to here as PPARalpha reporter cell line. It contains two genetic elements, a luciferase reporter element (pdeltaM-GAL4-Luc-Zeo) and a PPARalpha fusion protein (GR-GAL4-humanPPARalpha-LBD) which mediates expression of the luciferase reporter element depending on a PPARalpha ligand. The stably and constitutively expressed fusion protein GR-GAL4-humanPPARalpha-LBD binds in the cell nucleus of the PPARalpha reporter cell line via the GAL4 protein portion to the GAL4 DNA binding motifs 5′-upstream of the luciferase reporter element which is stably integrated in the genome of the cell line. There is only weak expression of the luciferase reporter gene in the absence of a PPARalpha ligand if fatty acid-depleted fetal calf serum (cs-FCS) is used in the assay. PPARalpha ligands bind and activate the PPARalpha fusion protein and thereby stimulate the expression of the luciferase reporter gene. The luciferase which is formed can be detected by means of chemiluminescence via an appropriate substrate.
The PPARalpha reporter cell line was prepared in two stages. Firstly, the luciferase reporter element was constructed and stably transfected into HEK cells. For this purpose, five binding sites of the yeast transcription factor GAL4 (Accession # AF264724) were cloned in 5′-upstream of a 68 bp-long minimal MMTV promoter (Accession # V01175). The minimal MMTV promoter section contains a CCAAT box and a TATA element in order to enable efficient transcription by RNA polymerase II. The cloning and sequencing of the GAL4-MMTV construct took place in analogy to the description of Sambrook J. et al. (Molecular cloning, Cold Spring Harbor Laboratory Press, 1989). Then the complete Photinus pyralis gene (Accession # M15077) was cloned in 3′-downstream of the GAL4-MMTV element. After sequencing, the luciferase reporter element consisting of five GAL4 binding sites, MMTV promoter and luciferase gene was recloned into a plasmid which confers zeocin resistance in order to obtain the plasmid pdeltaM-GAL4-Luc-Zeo. This vector was transfected into HEK cells in accordance with the statements in Ausubel, F. M. et al. (Current protocols in molecular biology, Vol. 1-3, John Wiley & Sons, Inc., 1995).
In a second step, the PPARalpha fusion protein (GR-GAL4-humanPPARalpha-LBD was introduced into the stable cell clone described. For this purpose, initially the cDNA coding for the N-terminal 76 amino acids of the glucocorticoid receptor (Accession # P04150) was linked to the cDNA section coding for amino acids 1-147 of the yeast transcription factor GAL4 (Accession # P04386). The cDNA of the ligand-binding domain of the human PPARalpha receptor (amino acids S167-Y468; Accession # S74349) was cloned in at the 3′-end of this GR-GAL4 construct. The fusion construct prepared in this way (GR-GAL4-humanPPARalpha-LBD) was recloned into the plasmid pcDNA3 (Invitrogen) in order to enable constitutive expression therein by the cytomegalovirus promoter. This plasmid was linearized with a restriction endonuclease and stably transfected into the previously described cell clone containing the luciferase reporter element. The finished PPARalpha reporter cell line which contains a luciferase reporter element and constitutively expresses the PPARalpha fusion protein (GR-GAL4-human PPARalpha-LBD) was isolated by selection with zeocin (0.5 mg/ml) and G418 (0.5 mg/ml).
The activity of PPARalpha agonists is determined in a 3-day assay, which is described below: […]

human PPARdelta = biological target: T2, human PPARdelta (Homo sapiens, UniProt Q03181); assay: Cellular PPARdelta assay (HEK PPARdelta reporter cell line, luciferase); format: cell-based; conditions: GR-GAL4-humanPPARdelta-LBD
T2 construct: human PPARdelta receptor (amino acids S139-Y441); expressed in transfected cells; host or cells: HEK cells, stably transfected (pcDNA3, CMV promoter)
T2 sequence (Q03181 139-441): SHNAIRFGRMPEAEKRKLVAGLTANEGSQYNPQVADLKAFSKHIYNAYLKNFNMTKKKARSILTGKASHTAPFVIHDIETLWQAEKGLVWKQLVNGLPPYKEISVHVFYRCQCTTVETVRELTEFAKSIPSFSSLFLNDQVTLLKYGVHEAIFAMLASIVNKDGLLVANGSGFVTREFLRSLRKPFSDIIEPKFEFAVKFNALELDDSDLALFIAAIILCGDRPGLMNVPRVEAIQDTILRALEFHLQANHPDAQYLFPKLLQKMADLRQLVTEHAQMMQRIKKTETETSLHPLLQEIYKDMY
Description: Determination of EC50 Values of PPAR Agonists in the Cellular PPARdelta Assay
as §1, with “PPARdelta” for “PPARalpha”, “In analogy to the assay described for PPARalpha, the PPARdelta reporter cell line also” for “It”, “(GR-GAL4-humanPPARdelta-LBD)” for “(GR-GAL4-humanPPARalpha-LBD)”, “GR-GAL4-humanPPARdelta-LBD” for “GR-GAL4-humanPPARalpha-LBD”, “little” for “weak”, “stimulate” for “stimulate the”
The production of the stable PPARdelta reporter cell line is based on a stable HEK-cell clone which was stably transfected with a luciferase reporter element. This step was already described above in the section “construction of the PPARalpha reporter cell line”. In a second step, the PPARdelta fusion protein (GR-GAL4-humanPPARdelta-LBD was stably introduced into this cell clone. For this purpose, the cDNA coding for the N-terminal 76 amino acids of the glucocorticoid receptor (Accession # P04150) was linked to the cDNA section coding for amino acids 1-147 of the yeast transcription factor GAL4 (Accession # P04386). The cDNA of the ligand-binding domain of the human PPARdelta receptor (amino acids S139-Y441; Accession # L07592) was cloned in at the 3′-end of this GR-GAL4 construct. The fusion construct prepared in this way (GR-GAL4-humanPPARdelta-LBD) was recloned into the plasmid pcDNA3 (Invitrogen) in order to enable constitutive expression by the cytomegalovirus promoter. This plasmid was linearized with a restriction endonuclease and stably transfected into the previously described cell clone containing the luciferase reporter element. The resulting PPARdelta reporter cell line which contains a luciferase reporter element and constitutively expresses the PPARdelta fusion protein (GR-GAL4-human PPARdelta-LBD) was isolated by selection with zeocin (0.5 mg/ml) and G418 (0.5 mg/ml).
The activity of PPARdelta agonists is determined in a 3-day assay in exact analogy to the procedure already described for the PPARalpha reporter cell line except that the PPARdelta reporter cell line and a specific PPARdelta agonist was used as a standard to control test efficacy.

[3] = diabetic animal model; cited from earlier work
[4] = obese, insulin resistant rhesus monkeys; cited from earlier work

| SMILES | EC50 (human PPARalpha) [nM] | EC50 (human PPARdelta) [nM] | further results |
| --- | --- | --- | --- |
| CCCc1c(OCCCSc2nnc(SCC(=O)O)s2)ccc(C(C)=O)c1O [YM-16638] |  |  | plasma lipids [1]: significantly lowers; plasma lipids [2]: acts in a similar manner |
| Cc1nc(-c2ccc(C(F)(F)F)cc2)sc1COc1ccc(-c2noc(=O)[nH]2)c(Cl)c1 [Example 4, 3-{2-Chloro-4-[4-methyl-2-(4-trifluoromethyl-phenyl)-thiazole-5-ylmethoxy]-phenyl}-4H-[1,2,4]oxadiazole-5-one] | 1660 | 56 |  |
| Cc1nc(-c2ccc(C(F)(F)F)cc2)sc1CSc1ccc(-c2noc(=O)[nH]2)cc1 [Example 5, 3-{4-[4-Methyl-2-(4-trifluoromethyl-phenyl)-thiazole-5-ylmethylsulfanyl]-phenyl}-4H-[1,2,4]oxadiazole-5-one] | 1330 | 68 |  |
| CCCCc1nc(-c2ccc(C(F)(F)F)cc2)sc1COc1cc(F)c(-c2noc(=O)[nH]2)c(F)c1 [Example 13, 3-{4-[4-Butyl-2-(4-trifluoromethyl-phenyl)-thiazol-5-ylmethoxy]-2,6-difluoro-phenyl}-4H-[1,2,4]oxadiazol-5-one] | 360 | 10 |  |
| CCCCc1nc(-c2ccc(C(F)(F)F)cc2)sc1COc1ccc(-c2noc(=O)[nH]2)c(C(F)(F)F)c1 [Example 15, 3-{4-[4-Butyl-2-(4-trifluoromethyl-phenyl)-thiazol-5-ylmethoxy]-2-trifluoromethyl-phenyl}-4H-[1,2,4]oxadiazol-5-one] | 150 | 3 |  |
| CCCc1c(OCCCOc2ccc(OCC(=O)O)cc2)ccc(C(C)=O)c1O [Example L-165041] |  |  | plasma cholesterol [3]: raises |
| CCCCc1nc(-c2ccc(C(F)(F)F)cc2)sc1COc1ccc(Cc2noc(=O)[nH]2)c(Cl)c1 [Example 10, 3-{4-[4-Butyl-2-(4-trifluoromethyl-phenyl)-thiazol-5-ylmethoxy]-2-chloro-benzyl}-4H-[1,2,4]oxadiazol-5-one] | 770 | 11 |  |
| Cc1cc(SCc2sc(-c3ccc(C(F)(F)F)cc3)nc2C)ccc1OCC(=O)O [GW501516] |  |  | HDL-cholesterol [4]: raises; insulin levels [4]: decreases; plasma LDL-cholesterol [4]: decreases; triglycerides [4]: decreases |
| CCCCc1nc(-c2ccc(C(F)(F)F)cc2)sc1COc1ccc(-c2noc(=O)[nH]2)c(OC)c1 [Example 18, 3-{4-[4-Butyl-2-(4-trifluoromethyl-phenyl)-thiazol-5-ylmethoxy]-2-methoxy-phenyl}-4H-[1,2,4]oxadiazol-5-one] | > 10000 | 15 |  |

Second part, led by results:

| EC50 (human PPARalpha) [nM] | EC50 (human PPARdelta) [nM] | SMILES | further results |
| --- | --- | --- | --- |
| 1560 | 55 | O=c1[nH]c(-c2ccc(OCc3sc(-c4ccc(C(F)(F)F)cc4)nc3CCCCO)cc2Cl)no1 [Example 20, 3-{2-Chloro-4-[4-(4-hydroxy-butyl)-2-(4-trifluoromethyl-phenyl)-thiazol-5-ylmethoxy]-phenyl}-4H-[1,2,4]oxadiazol-5-one] |  |
| 230 | 1 | COCCOCc1nc(-c2ccc(C(F)(F)F)cc2)sc1COc1ccc(-c2noc(=O)[nH]2)c(Cl)c1 [Example 34, 3-{2-Chloro-4-[4-(2-methoxy-ethoxymethyl)-2-(4-trifluoromethyl-phenyl)-thiazol-5-ylmethoxy]-phenyl}-4H-[1,2,4]oxadiazol-5-one] |  |
| 250 | 16 | Cc1oc(-c2ccc(-c3ccccc3)cc2)nc1COc1ccc(-c2noc(=O)[nH]2)c(Cl)c1 [Example 30, 3-[4-(2-Biphenyl-4-yl-5-methyl-oxazol-4-ylmethoxy)-2-chloro-phenyl]-4H-[1,2,4]oxadiazol-5-one] |  |
| 420 | 0.7 | O=c1[nH]c(-c2ccc(OCc3sc(-c4ccc(C(F)(F)F)cc4)nc3CCCOCc3ccccc3)cc2Cl)no1 [Example 50, 3-{4-[4-(3-Benzyloxy-propyl)-2-(4-trifluoromethyl-phenyl)-thiazol-5-ylmethoxy]-2-chloro-phenyl}-4H-[1,2,4]oxadiazol-5-one] |  |
| 120 | 23 | CCCCc1nc(-c2ccc(C(F)(F)F)cc2)sc1COCc1ccc(-c2noc(=O)[nH]2)c(F)c1 [Example 28, 3-{4-[4-Butyl-2-(4-trifluoromethyl-phenyl)-thiazol-5-ylmethoxymethyl]-2-fluoro-phenyl}-4H-[1,2,4]oxadiazol-5-one] |  |
| 320 | 310 | Cc1sc(-c2ccc(S(F)(F)(F)(F)F)cc2)nc1CCOc1ccc(-c2noc(=O)[nH]2)c(Cl)c1 [Example 32] |  |
